The values below come from the supplement of paper PMC11061612.

Common to all, as to experiment: Bliss excess, mean over the matrix (fraction); higher = more synergy
The subject of assay [1] is Detroit562 (Head and Neck Carcinoma). The procedure, abridged:
(§1)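 Bliss excess equals the observed combination effect minus the expected value EA + EB − EA·EB, where EA and EB are the effects of each agent alone. Combination Emax is the second-highest inhibition within the matrix. Inhibition was scaled from CellTiter-Glo 2.0 luminescence, with 0 set by vehicle wells and 1 by blank wells, after 72 hours of two-drug dosing of cells plated in 1536-well plates.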

Assay [2] has as its system NCI-H1568 (Lung Adenocarcinoma). The procedure, abridged:
as §1

Assay [3] has as its system MHH-CALL-2 (B-Lymphoblastic Leukemia). The procedure, abridged: as §1
In assay [4] the test system is SW1710 (Bladder Carcinoma). The procedure, abridged: as §1
The test system of assay [5] is YAPC (Pancreatic Carcinoma). The method in brief: as §1
Assay [6] deals with TGBC1TKB (Biliary Tract Carcinoma). The method in brief: as §1
The next assay deals with LOXIMVI (Melanoma). The procedure, abridged: as §1
Assay [7] relates to NUGC-4 (Gastric Carcinoma). The procedure, abridged:
as §1

The test system of assay [8] is FTC-133 (Thyroid Gland Carcinoma). The procedure, abridged: as §1
For assay [9], the system named is KYAE-1 (Esophageal Adenocarcinoma). The method in brief: as §1
In assay [10] the test system is OE21 (Esophageal Squamous Cell Carcinoma). The method in brief:
as §1

The subject of the next assay is KS-1 (Glioblastoma). The procedure, abridged:
as §1

The subject of assay [11] is OVCAR-5 (Ovarian Carcinoma). The procedure, abridged:
as §1

For assay [12], the system named is SNU-16 (Gastric Carcinoma). The procedure, abridged:
as §1

Assay [13] has as its system CAL-33 (Oral Cavity Carcinoma). The method in brief:
as §1

The test system of assay [14] is WSU-NHL (B-Cell Non-Hodgkin's Lymphoma). The method in brief: as §1
Assay [15] relates to ESS-1 (Other Solid Carcinomas). The procedure, abridged:
as §1

Assay [16] concerns KMRC-20 (Kidney Carcinoma). The method in brief: as §1
Assay [17] deals with SAS (Oral Cavity Carcinoma). The procedure, abridged: as §1
The subject of assay [18] is BFTC-909 (Kidney Carcinoma). The procedure, abridged:
as §1

Consider `NC1(C(=O)N[C@@H](CCO)c2ccc(Cl)cc2)CCN(c2ncnc3[nH]ccc23)CC1` [Capivasertib] + CC(C)n1c(=O)n(C)c2cnc3cc(F)c(-c4ccc(OCCCN5CCCCC5)nc4)cc3c21 [AZD1390] (first compound max 10 µM, 7x7, partner max 0.3 µM), for which the Bliss excess is -0.0122 in assay [1]; -0.0852 in assay [2]; -0.0439 in assay [3]; -0.0482 in assay [4]; -0.0105 in [5]; 0.004 in [6]. The Bliss excess with LOXIMVI (Melanoma) was -0.0063; in assay [7] it was -0.0524; in assay [8] it was -0.0486; in assay [9], -0.0081; in assay [10], -0.0474; in the assay on KS-1 (Glioblastoma) it was -0.0969. For the same molecule, the Bliss excess in assay [11] is -0.0829; in assay [12], -0.0034; in [13], -0.0018; in [14], -0.0418; in assay [15], -0.0078; in assay [16], -0.0651. Further, the Bliss excess in assay [17] is -0.036; in [18] it was -0.013.

`NC1(C(=O)N[C@@H](CCO)c2ccc(Cl)cc2)CCN(c2ncnc3[nH]ccc23)CC1` [Capivasertib] + CCN(CCO)CCCOc1ccc2c(Nc3cc(CC(=O)Nc4cccc(F)c4)[nH]n3)ncnc2c1 [AZD2811] (first compound max 10 µM, 7x7, partner max 1 µM): the Bliss excess is -0.0114 in assay [1]; -0.0235 in assay [2]; -0.0244 in [3]; -0.0507 in [4]; 0.0161 in assay [5]; -0.0275 in [6]. In addition, the Bliss excess was -0.0072 in the assay on LOXIMVI (Melanoma); -0.0543 in assay [7]; 0.0005 in [8]; 0.0023 in [9]; 0.0098 in [10]; 0.0374 in the assay with KS-1 (Glioblastoma). The Bliss excess in [11] was -0.0223; in [12], 0.0416; in [13] it was -0.0564; in assay [14], -0.0697; in [15], 0.0203; in [16], -0.015. Moreover, the Bliss excess in assay [17] was -0.0264; in assay [18], 0.0366.

With `NC1(C(=O)N[C@@H](CCO)c2ccc(Cl)cc2)CCN(c2ncnc3[nH]ccc23)CC1` [Capivasertib] + COc1nnc2ccc(N3CCC(c4ccc(OCCN5CCN(C)C(=O)[C@H]5C)cc4)CC3)nn12 [AZD5153] (first compound max 10 µM, 7x7, partner max 1 µM), the Bliss excess was -0.0212 in assay [1]; -0.0032 in [2]; -0.03 in assay [3]; 0.0751 in assay [4]; 0.007 in assay [5]; 0.02 in [6]. For the same molecule, the Bliss excess with LOXIMVI (Melanoma) is 0.0133; in assay [7] it was -0.0333; in assay [8] it was 0.0923; in [9], 0.0352; in assay [10] it was 0.0333; in the assay on KS-1 (Glioblastoma) it was -0.0211. For the same molecule, the Bliss excess in [11] is 0.0138; in assay [12], 0.0344; in assay [13] it was 0.051; in assay [14] it was -0.0923; in [15], 0.0342; in assay [16], 0.0004. Further, the Bliss excess is -0.0524 in [17] and 0.0433 in assay [18].

As for `NC1(C(=O)N[C@@H](CCO)c2ccc(Cl)cc2)CCN(c2ncnc3[nH]ccc23)CC1` [Capivasertib] + C[C@@H]1COCCN1C2=NC(=NC(=C2)C3(CC3)[S@](=N)(=O)C)C4=C5C=CNC5=NC=C4 [AZD6738] (first compound max 10 µM, 7x7, partner max 10 µM), the Bliss excess was -0.0137 in assay [1]; -0.0216 in assay [2]; -0.0076 in [3]; -0.0403 in [4]; 0.0093 in assay [5]; -0.005 in assay [6]. In addition, the Bliss excess in the assay with LOXIMVI (Melanoma) was -0.0014; in assay [7], -0.0488; in assay [8] it was -0.042; in assay [9], 0.0014; in assay [10] it was -0.0499; with KS-1 (Glioblastoma), -0.0366. For the same molecule, the Bliss excess was -0.0357 in assay [11]; -0.0208 in assay [12]; -0.0246 in assay [13]; -0.05 in [14]; -0.0884 in assay [15]; -0.128 in assay [16]. The Bliss excess in assay [17] is -0.0308; in assay [18], -0.0878.

Turning to `NC1(C(=O)N[C@@H](CCO)c2ccc(Cl)cc2)CCN(c2ncnc3[nH]ccc23)CC1` [Capivasertib] + Cn1cnc2c(F)c(Nc3ccc(Br)cc3Cl)c(C(=O)NOCCO)cc21 [Selumetinib] (first compound max 10 µM, 7x7, partner max 10 µM), the Bliss excess in assay [1] is 0.0993; in assay [2] it was -0.055; in [3], 0.156; in assay [4], 0.0396; in assay [5], 0.03; in [6], 0.0729. In addition, the Bliss excess in the assay on LOXIMVI (Melanoma) is 0.107; in assay [7], 0.0363; in assay [8], 0.0156; in assay [9], -0.0064; in assay [10], 0.0761; with KS-1 (Glioblastoma) it was 0.0426. In addition, the Bliss excess in [11] is -0.028; in assay [12] it was 0.0151; in [13] it was 0.0926; in assay [14] it was 0.0544; in [15], -0.0183; in assay [16], -0.133. In addition, the Bliss excess came to 0.0089 in assay [17] and 0.0531 in [18].

For `CS(=O)(=O)CCNCc1ccc(-c2ccc3ncnc(Nc4ccc(OCc5cccc(F)c5)c(Cl)c4)c3c2)o1` [Lapatinib] + C[C@@H](Oc1cc(-c2cnn(C3CCNCC3)c2)cnc1N)c1c(Cl)ccc(F)c1Cl [Crizotinib] (first compound max 10 µM, 7x7, partner max 10 µM), the Bliss excess in [1] is 0.0107; in assay [2] it was -0.0174; in assay [3], 0.0219; in assay [4], -0.078; in assay [5], -0.0168; in [6] it was -0.0061. The Bliss excess was -0.0505 in the assay on LOXIMVI (Melanoma); 0.0496 in [7]; -0.0012 in assay [8]; -0.0171 in assay [9]; 0.0006 in assay [10]; -0.0458 with KS-1 (Glioblastoma). Moreover, the Bliss excess is -0.0818 in assay [11]; -0.0151 in assay [12]; -0.0247 in [13]; -0.0515 in [14]; -0.0637 in assay [15]; -0.116 in [16]. Further, the Bliss excess is -0.0346 in assay [17] and -0.0651 in [18].
